Data from patent EP4610269A1, “UROKINASE PLASMINOGEN ACTIVATOR SURFACE RECEPTOR (UPAR) LIGANDS FOR DIAGNOSTIC OR THERAPEUTIC USE” (3B Pharmaceuticals GmbH, priority 2024, dated 2025).
Read-outs that look alike come from different tables or passages of the source. Where a SMILES comes first, the peptide text is derived from it. Bridges are numbered along the chain shown (N, C = ends). [ ]: non-standard residue; d: D form. The star is where a group is joined. DOTA(Lu) = O=C1CN2CCN3CCN(CC(=O)*)CCN(CC2)CC(=O)[O][Lu]([O]1)[O]C(=O)C3; CH3O(CH2CH2O)11CH2CH2CO = COCCOCCOCCOCCOCCOCCOCCOCCOCCOCCOCCOCCC(=O)*; DOTA = O=C(O)CN1CCN(CC(=O)O)CCN(CC(=O)*)CCN(CC(=O)O)CC1; Lys(Me3) = C[N+](C)(C)CCCC[C@H](N)C(=O)O; Pro(cis-4-F) = O=C(O)[C@@H]1C[C@H](F)CN1; Hyp = O=C(O)[C@@H]1C[C@@H](O)CN1; NMeQ = CN[C@@H](CCC(N)=O)C(=O)O; Pentanoyl(4-Me) = CC(C)CCC(=O)*; Cit = NC(=O)NCCC[C@H](N)C(=O)O; dOrn = NCCC[C@@H](N)C(=O)O; NMeC = CN[C@@H](CS)C(=O)O; dNva = CCC[C@@H](N)C(=O)O; NMeA = CN[C@@H](C)C(=O)O; Orn = NCCC[C@H](N)C(=O)O; dNMeA = CN[C@H](C)C(=O)O; Nva = CCC[C@H](N)C(=O)O; Deg = CCC(N)(CC)C(=O)O; Hexanoyl = CCCCCC(=O)*; Pentanoyl = CCCCC(=O)*

Tests used:
[1] = molecular target: T1, uPAR-expressing HEC-265 human endometrial adenocarcinoma cells (Homo sapiens, UniProt Q03405); test: Competitive FACS binding assay; conditions: pIC50 category of FACS binding
T1 construct: Cell surface uPAR-expressing HEC-265 human endometrial adenocarcinoma cells; host or cells: HEC-265
T1 sequence (Q03405 23-335): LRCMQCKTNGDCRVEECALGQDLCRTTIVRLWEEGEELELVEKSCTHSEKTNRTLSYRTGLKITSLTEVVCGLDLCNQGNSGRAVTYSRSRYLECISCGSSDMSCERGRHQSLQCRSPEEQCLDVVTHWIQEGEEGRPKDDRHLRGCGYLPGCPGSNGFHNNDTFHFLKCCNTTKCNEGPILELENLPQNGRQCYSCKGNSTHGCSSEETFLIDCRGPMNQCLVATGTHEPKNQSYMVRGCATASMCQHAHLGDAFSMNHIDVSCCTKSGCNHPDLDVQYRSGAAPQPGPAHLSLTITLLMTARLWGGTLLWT
How it was run: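 Competitive displacement of a 10 nM biotinylated peptide from HEC-265 cells (1 h, 4 °C, PBS/1% BSA), detected via APC-streptavidin by flow cytometry. pIC50 from four-parameter logistic fit of median fluorescence versus concentration.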

[2] = molecular target: T2, human uPAR (uPAR-Fc) (Homo sapiens, UniProt Q03405); test: Surface plasmon resonance (SPR) assay, single cycle kinetics; format: binding; conditions: pKD category for uPAR SPR activity assay, uPAR-Fc on Protein A-Chip, 25°C; for Kd: read-out: pKD CAT (converted)
T2 construct: comprising amino acids Leu23-Arg303 according to UniProt entry Q03405.1; purchased R&D Systems 10378-UK-100
T2 sequence (Q03405 23-303): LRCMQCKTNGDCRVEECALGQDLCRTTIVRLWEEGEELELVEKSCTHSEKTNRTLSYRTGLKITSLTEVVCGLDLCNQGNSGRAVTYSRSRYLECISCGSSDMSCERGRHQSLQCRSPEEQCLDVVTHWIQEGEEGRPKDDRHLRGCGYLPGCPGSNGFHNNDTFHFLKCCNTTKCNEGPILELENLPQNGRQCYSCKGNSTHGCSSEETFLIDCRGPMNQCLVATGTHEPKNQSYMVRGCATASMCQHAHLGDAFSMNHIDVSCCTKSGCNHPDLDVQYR
How it was run: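 uPAR-Fc (Leu23-Arg303 extracellular domains, human IgG1 Fc) captured on Protein A chip to ~2000 RU; single-cycle kinetics at 25°C in HEPES running buffer pH 7.4 with 0.1% DMSO. KD from double-referenced sensorgrams fitted to 1:1 Langmuir model, reported as pKD.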

| Compound | IC50 [1] | Kd [2] | other results |
| --- | --- | --- | --- |
| CCCCC(=O)N[C@H]1CSSC[C@@H](C(N)=O)NC(=O)[C@H](CCC)NC(=O)C(CC)(CC)NC(=O)[C@@H]2C[C@@H](O)CN2C(=O)[C@@H]2CCCN2C(=O)[C@H](Cc2ccccc2)NC(=O)[C@H](Cc2ccc(O)cc2)NC(=O)[C@H](CCC(N)=O)NC(=O)[C@H](CCCNC(=N)N)NC1=O [UPAR-179, Pent-[Cys-Arg-Gln-Tyr-Phe-Pro-Hyp-Deg-Nva-Cys]-NH2] (Pentanoyl-CRQYFP[Hyp][Deg][Nva]C-NH2; disulfide 1-10) | ≥ 126 nM | > 100 nM |  |
| CCCCC(=O)N[C@H]1CSSC[C@@H](C(N)=O)NC(=O)[C@H](CCC)NC(=O)[C@H]([C@@H](C)CC)NC(=O)[C@H](C)N(C)C(=O)[C@@H]2CCCN2C(=O)[C@H](Cc2ccccc2)NC(=O)[C@H](Cc2ccc(O)cc2)NC(=O)[C@H](CCCCNC(=O)CN2CCN(CC(=O)O)CCN(CC(=O)O)CCN(CC(=O)O)CC2)NC(=O)[C@H](CCCNC(N)=O)NC1=O [UPAR-316, Pent-[Cys-Cit-Lys(DOTA)-Tyr-Phe-Pro-Nma-Ile-Nva-Cys]-NH2] (Pentanoyl-C[Cit]K(DOTA)YFP[NMeA]I[Nva]C-NH2; disulfide 1-10) | 12.6 to 31.6 nM | 1.58 to 10 nM |  |
| CCCCC(=O)N[C@H]1CSSC[C@@H](C(N)=O)NC(=O)[C@H](CCC)NC(=O)[C@H]([C@@H](C)CC)NC(=O)[C@@H]2C[C@@H](O)CN2C(=O)[C@@H]2CCCN2C(=O)[C@H](Cc2ccccc2)NC(=O)[C@H](Cc2ccc(O)cc2)NC(=O)[C@H](CCCCNC(=O)CN2CCN(CC(=O)O)CCN(CC(=O)O)CCN(CC(=O)O)CC2)NC(=O)[C@H](CC(N)=O)NC1=O [UPAR-283, Pent-[Cys-Asn-Lys(DOTA)-Tyr-Phe-Pro-Hyp-Ile-Nva-Cys]-NH2] (Pentanoyl-CNK(DOTA)YFP[Hyp]I[Nva]C-NH2; disulfide 1-10) | ≤ 10 nM | < 1.58 nM |  |
| Pent-[Cys-Cit-Lys(LuDOTA)-Tyr-Phe-Pro-nma-Ile-Nva-Cys]-NH2 (Pentanoyl-C[Cit]K(DOTA(Lu))YFP[dNMeA]I[Nva]C-NH2; disulfide 1-10; not fully specified; also: Lu(III) complexed by DOTA) [UPAR-151] |  |  | pIC50 CAT [1]: A (pIC50 values ≥8.0); pKD CAT [2]: A (pKD values ≥ 8.8) |
| CCCCC(=O)N[C@H]1CSSC[C@@H](C(N)=O)NC(=O)[C@H](CCC)NC(=O)[C@H]([C@@H](C)CC)NC(=O)[C@@H](CCC)NC(=O)[C@@H]2CCCN2C(=O)[C@H](Cc2ccccc2)NC(=O)[C@H](Cc2ccc(O)cc2)NC(=O)[C@H](CCC(N)=O)NC(=O)[C@H](CCCNC(=N)N)NC1=O [UPAR-322, Pent-[Cys-Arg-Gln-Tyr-Phe-Pro-nva-Ile-Nva-Cys]-NH2] (Pentanoyl-CRQYFP[dNva]I[Nva]C-NH2; disulfide 1-10) | 12.6 to 31.6 nM | 1.58 to 10 nM |  |
| Pent-[Cys-Cit-Lys(LaDOTA)-Tyr-Thi-Pro-Hyp-Ile-Nva-Cys]-NH2 [UPAR-166] |  |  | pIC50 CAT [1]: A (pIC50 values ≥8.0); pKD CAT [2]: A (pKD values ≥ 8.8) |
| CCCCC(=O)N[C@H]1CSSC[C@@H](C(N)=O)NC(=O)[C@H](CCC)NC(=O)[C@H]([C@@H](C)CC)NC(=O)[C@@H]2C[C@@H](O)CN2C(=O)[C@@H]2CCCN2C(=O)[C@H](Cc2ccccc2)NC(=O)[C@H](Cc2ccc(O)cc2)NC(=O)[C@H](CCCCNC(=O)CN2CCN(CC(=O)O)CCN(CC(=O)O)CCN(CC(=O)O)CC2)NC(=O)[C@H](CCCC[N+](C)(C)C)NC1=O [UPAR-153, Pent-[Cys-KMe3-Lys(DOTA)-Tyr-Phe-Pro-Hyp-Ile-Nva-Cys]-NH2] (Pentanoyl-C[Lys(Me3)]K(DOTA)YFP[Hyp]I[Nva]C-NH2; disulfide 1-10) | ≤ 10 nM | < 1.58 nM |  |
| CCC[C@@H]1NC(=O)[C@H]([C@@H](C)CC)NC(=O)[C@@H]2C[C@@H](O)CN2C(=O)[C@@H]2CCCN2C(=O)[C@H](Cc2ccccc2)NC(=O)[C@H](Cc2ccc(O)cc2)NC(=O)[C@H](CCC(N)=O)NC(=O)[C@H](CCCNC(N)=O)NC(=O)[C@@H](N(C)C(=O)[C@H](CC(C)C)NC(=O)CN2CCN(CC(=O)O)CCN(CC(=O)O)CCN(CC(=O)O)CC2)CSSC[C@@H](C(N)=O)NC1=O [UPAR-142, DOTA-Leu-[Nmc-Cit-Gln-Tyr-Phe-Pro-Hyp-Ile-Nva-Cys]-NH2] ({DOTA}-L[NMeC][Cit]QYFP[Hyp]I[Nva]C-NH2; disulfide 2-11) | ≥ 126 nM | 10 to 100 nM |  |
| Pent-[Cys-Cit-Lys(LuDOTA)-Nif-Phe-Pro-Hyp-Ile-Nva-Cys]-NH2 [UPAR-352] |  |  | pIC50 CAT [1]: A (pIC50 values ≥8.0); pKD CAT ([2]; single cycle kinetics): A (pKD values ≥ 8.8) |
| Pent-[Cys-Cit-Lys(InDOTA)-Tyr-Pcf-Pro-Hyp-Ile-Nva-Cys]-NH2 [UPAR-355] |  |  | pIC50 CAT [1]: A (pIC50 values ≥8.0); pKD CAT ([2]; single cycle kinetics): A (pKD values ≥ 8.8) |
| CCCCCC(=O)N[C@@H](CO)C(=O)N[C@@H](CC(C)C)C(=O)N[C@H]1CSSC[C@@H](C(N)=O)NC(=O)[C@H](CC(C)C)NC(=O)[C@H]([C@@H](C)CC)NC(=O)[C@H](C)NC(=O)[C@@H]2CCCN2C(=O)[C@H](Cc2ccccc2)NC(=O)[C@H](Cc2ccccc2)NC(=O)[C@H](CCC(N)=O)NC(=O)[C@H](CC(=O)O)NC1=O [UPAR-202, Hex-Ser-Leu-[Cys-Asp-Gln-Phe-Phe-Pro-Ala-Ile-Leu-Cys]-NH2] (Hexanoyl-SLCDQFFPAILC-NH2; disulfide 3-12) | ≤ 10 nM | < 1.58 nM |  |

The next lines start with results.

| IC50 [1] | Kd [2] | Compound | other results |
| --- | --- | --- | --- |
| ≤ 10 nM | < 1.58 nM | CCCCC(=O)N[C@H]1CSSC[C@@H](C(N)=O)NC(=O)[C@H](CCC)NC(=O)[C@H]([C@@H](C)CC)NC(=O)[C@@H]2C[C@@H](O)CN2C(=O)[C@@H]2CCCN2C(=O)[C@H](Cc2ccccc2)NC(=O)[C@H](Cc2ccc(O)cc2)NC(=O)[C@H](CCCCNC(=O)CN2CCN(CC(=O)O)CCN(CC(=O)O)CCN(CC(=O)O)CC2)NC(=O)[C@H](CO)NC1=O [UPAR-342, Pent-[Cys-Ser-Lys(DOTA)-Tyr-Phe-Pro-Hyp-Ile-Nva-Cys]-NH2] (Pentanoyl-CSK(DOTA)YFP[Hyp]I[Nva]C-NH2; disulfide 1-10) |  |
| ≤ 10 nM |  | CC[C@H](C)[C@@H]1NC(=O)[C@@H](C)NC(=O)[C@@H]2C[C@H](F)CN2C(=O)[C@H](Cc2ccccc2)NC(=O)[C@H](Cc2ccc(O)cc2)NC(=O)[C@H](CCC(N)=O)NC(=O)[C@H](CCCNC(N)=O)NC(=O)[C@@H](NC(=O)CCC(C)C)CSSC[C@@H](C(N)=O)NC(=O)[C@H](CC(C)C)NC1=O [UPAR-354, iHex-[Cys-Cit-Gln-Tyr-Phe-4Cfp-ala-Ile-Leu-Cys]-NH2] ({Pentanoyl(4-Me)}-C[Cit]QYF[Pro(cis-4-F)][dA]ILC-NH2; disulfide 1-10) | Kd ([2]; single cycle kinetics): < 1.58 nM |
| ≤ 10 nM |  | CCCCC(=O)N[C@H]1CSSC[C@@H](C(N)=O)NC(=O)[C@H](CCC)NC(=O)[C@H]([C@@H](C)CC)NC(=O)[C@@H]2C[C@@H](O)CN2C(=O)[C@@H]2CCCN2C(=O)[C@H](Cc2ccccc2)NC(=O)[C@H](Cc2ccc(O)cc2)NC(=O)[C@H](CCCCNC(=O)CN2CCN(CC(=O)O)CCN(CC(=O)O)CCN(CC(=O)O)CC2)NC(=O)[C@H](CCCNC(=O)CCOCCOCCOCCOCCOCCOCCOCCOCCOCCOCCOCCOC)NC1=O [UPAR-383, Pent-[Cys-Orn(mPEG12)-Lys(DOTA)-Tyr-Phe-Pro-Hyp-Ile-Nva-Cys]-NHz] (Pentanoyl-C[Orn](CH3O(CH2CH2O)11CH2CH2CO)K(DOTA)YFP[Hyp]I[Nva]C-NH2; disulfide 1-10) | Kd ([2]; single cycle kinetics): < 1.58 nM |
| ≤ 10 nM |  | CCCCC(=O)N[C@H]1CSSC[C@@H](C(N)=O)NC(=O)[C@H](COC)NC(=O)[C@H]([C@@H](C)CC)NC(=O)[C@@H]2C[C@@H](O)CN2C(=O)[C@@H]2CCCN2C(=O)[C@H](Cc2ccccc2)NC(=O)[C@H](Cc2ccc(O)cc2)NC(=O)[C@H](CCCCNC(=O)CN2CCN(CC(=O)O)CCN(CC(=O)O)CCN(CC(=O)O)CC2)NC(=O)[C@H](CCCNC(N)=O)NC1=O [UPAR-380, Pent-[Cys-Cit-Lys(DOTA)-Tyr-Phe-Pro-Hyp-Ile-Ser(Me)-Cys]-NH2] (Pentanoyl-C[Cit]K(DOTA)YFP[Hyp]IS(Me)C-NH2; disulfide 1-10) | Kd ([2]; single cycle kinetics): 1.58 to 10 nM |
| ≥ 126 nM |  | CC[C@H](C)[C@@H]1NC(=O)[C@@H](C)NC(=O)[C@@H]2CCCN2C(=O)[C@H](Cc2ccccc2)NC(=O)[C@H](Cc2ccc(O)cc2)NC(=O)[C@H](CCC(N)=O)N(C)C(=O)[C@H](CCCNC(N)=O)NC(=O)[C@@H](NC(=O)CCC(C)C)CSSC[C@@H](C(N)=O)NC(=O)[C@H](CC(C)C)NC1=O [UPAR-407, iHex-[Cys-Cit-Nmq-Tyr-Phe-Pro-ala-Ile-Leu-Cys]-NH2] ({Pentanoyl(4-Me)}-C[Cit][NMeQ]YFP[dA]ILC-NH2; disulfide 1-10) | Kd ([2]; single cycle kinetics): 10 to 100 nM |
| 12.6 to 31.6 nM |  | CCCCC(=O)N[C@H]1CSSC[C@@H](C(N)=O)NC(=O)[C@H](CCC)NC(=O)[C@H]([C@@H](C)CC)NC(=O)[C@@H](CCCN)NC(=O)[C@@H]2CCCN2C(=O)[C@H](Cc2ccccc2)NC(=O)[C@H](Cc2ccc(O)cc2)NC(=O)[C@H](CCC(N)=O)NC(=O)[C@H](CCCNC(=N)N)NC1=O [UPAR-438, Pent-[Cys-Arg-Gln-Tyr-Phe-Pro-orn-Ile-Nva-Cys]-NH2] (Pentanoyl-CRQYFP[dOrn]I[Nva]C-NH2; disulfide 1-10) | Kd ([2]; single cycle kinetics): 1.58 to 10 nM |
